# pKi: −log10 of the molar value.
# Target: Spermine oxidase (Homo sapiens, UniProt Q9NWM0)
# Experiment: Enzyme Inhibition Assay
# Conditions: pH 8.3; 25 °C
# Method: SMO activity was assayed at pH 8.3 (0.1 M Tris-HCl buffer) and 25°C using Spm as the substrate in the presence and absence of CHX.
# Chain of Spermine oxidase (Q9NWM0 whole entry): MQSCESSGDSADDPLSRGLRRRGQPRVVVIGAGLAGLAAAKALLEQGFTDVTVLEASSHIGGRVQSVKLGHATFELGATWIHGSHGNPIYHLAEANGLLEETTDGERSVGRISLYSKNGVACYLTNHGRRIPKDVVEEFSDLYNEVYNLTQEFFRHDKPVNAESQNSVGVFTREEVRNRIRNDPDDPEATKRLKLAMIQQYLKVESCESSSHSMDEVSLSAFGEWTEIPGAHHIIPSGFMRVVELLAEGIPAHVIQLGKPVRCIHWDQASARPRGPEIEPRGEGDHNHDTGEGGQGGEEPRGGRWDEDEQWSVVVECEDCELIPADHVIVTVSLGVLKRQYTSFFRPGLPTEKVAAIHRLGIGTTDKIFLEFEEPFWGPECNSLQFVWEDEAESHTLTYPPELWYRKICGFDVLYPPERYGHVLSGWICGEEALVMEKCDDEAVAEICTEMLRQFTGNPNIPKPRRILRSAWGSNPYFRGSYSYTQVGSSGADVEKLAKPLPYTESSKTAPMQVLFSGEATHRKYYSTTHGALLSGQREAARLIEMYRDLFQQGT
compound,measurement,value
[H]/N=C(\N/C(=N/[H])NCCCCCCNC(=N)NC(=N)Nc1ccc(Cl)cc1)Nc1ccc(Cl)cc1 [Chlorhexidine (1)],pKi,6.26

# Source: BindingDB's records for doi:10.3109/14756366.2011.650691 (University Roma Tre, 2013)
